From paper PMC4747952, “Development of TASP0410457 (TASP457), a novel dihydroquinolinone derivative as a PET radioligand for central histamine H3 receptors” (EJNMMI Research, 2016)

Legend:
[1] = system: Glutamate Glycine (Strychnine-insensitive glycine-binding module of NMDA receptor); test: Off-target binding (Cerep); parameters: unit of the concentration uncertain
Source text: (§1) Off-target binding of compounds assessed using an in-house assay (M4) and a commercial battery (all others) (Cerep, Celle L'Evescault, France).
(§2) Concentration % Inhibition Concentration % Inhibition Concentration % Inhibition […]
(§3) *1α -amino-3-hydroxy-5-methyl-4-isoxazolepropionic acid receptor; *2N-methyl-D-aspartate receptor; *3Strychnine-insensitive glycine-binding module of NMDA receptor; *4Phencyclidine-binding site of NMDA receptor; *5ATP-sensitive potassium channel; *6Voltage-dependent potassium channel; *7small conductance calcium-activated potassium channel; *85-hydroxytryptamine 1A receptor

[2] = system: Glutamate PCP (Phencyclidine-binding site of NMDA receptor); test: Off-target binding (Cerep); parameters: unit of the concentration uncertain
Source text: as §1, §2, §3

[3] = Lipophilicity measurement (Log D); format: physicochemical; conditions: pH 7.4; octanol and phosphate buffer (pH7.4); read-out: Log D7.4
Experimental: Lipophilicity measurement
Log D was determined by partitioning each compound between an octanol and phosphate buffer […]
each layer using HPLC with ultraviolet (UV) detection.
Assays for P-glycoprotein-mediated transcellular transport of compounds LLC-GA5-COL300 cells expressing human P-glycoprotein were seeded at a density of 4.5 × 10^5 cells/cm2 onto polycarbonate membrane filters of 12-well cell culture insert plates and cultured at 37°C in a humidified incubator containing 5% CO2 for 3 days. After each cell monolayer was pre-incubated at 37°C for 20 min in Hank’s balanced salt solution containing 10 mM HEPES (HBSS buffer), transcellular transport experiments were initiated by adding the test compound solution to the apical or basal side of the cell culture inserts. HBSS buffer was sampled from the compartment opposite of that spiked with the test compounds at 0.5, 1, 1.5 and 2 h after initiation of the experiments, and concentrations of the test compounds were determined using LC-MS/MS. The apparent permeability coefficient (Papp) of the test compounds was calculated using the following equation:
Papp= dQ/dt / C0 / A Eq. 1, where dQ/dt represents the rate of permeation of the compounds, C0 is the initial concentration of the test compounds ([…]), and A is the area of the monolayer. The efflux ratio (ER) was defined as […]

Sigma 1 receptor = target: T1, Sigma 1 receptor (Homo sapiens, UniProt Q99720); test: Sigma 1 receptor binding, [3H]pentazocine; conditions: Jurkat cell membranes; 4 nM [3H]pentazocine; read-out: Off-target binding Sigma 1, IC50
T1 construct: The membrane preparations were made from Jurkat cell lines; endogenous in cells; host or cells: Jurkat
T1 sequence (Q99720 whole entry): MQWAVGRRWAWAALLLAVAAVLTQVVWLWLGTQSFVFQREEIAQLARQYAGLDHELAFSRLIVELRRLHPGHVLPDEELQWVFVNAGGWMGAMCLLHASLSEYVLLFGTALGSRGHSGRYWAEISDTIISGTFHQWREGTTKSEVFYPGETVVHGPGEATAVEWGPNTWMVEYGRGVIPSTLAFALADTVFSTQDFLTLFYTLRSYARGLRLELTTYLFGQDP
Experimental: H) 6.86 [d, J = 8.67 Hz, 2 H]; MS [ESI/APCI Dual) [Positive) m/z; 381(M+H)+ ) .
Off-target binding of compounds
The membrane preparations were made from Jurkat cell lines, and were incubated in sigma 1 binding buffer (0.1% bovine serum albumin in 50 mM Tris, pH7.4) containing 4 nM [3H]pentazocine (PerkinElmer), and serial concentrations of the compound at 25°C for 2.5 h. The reaction was terminated by rapid filtration through a 96-well GF/C filter plate presoaked in 0.5% polyethyleneimine.
The filters were washed with ice-cold 50 mM Tris (pH7.4) three times, dried, and filled with Microscint-o. The radioactivity retained on the filter was counted using a TopCount NXT. Nonspecific binding was determined as the amount of radioactivity under the above-mentioned conditions in the presence of […] of haloperidol. The IC50 values were determined by nonlinear curve-fitting of the concentration-response data for each compound using Origin version 6.1087 (OriginLab Corporation, […]
Adrenergic 2c receptor binding
Human 2c receptor-expressing membrane preparations were purchased from PerkinElmer. The

H3Rs = target: T2, H3Rs (Rattus norvegicus, UniProt Q9QYN8); test: In vitro autoradiography, rat brain sections; format: binding; conditions: 5 nM radioligand
T2 construct: from tissue; host or cells: sagittal rat brain sections
T2 sequence (Q9QYN8 whole entry): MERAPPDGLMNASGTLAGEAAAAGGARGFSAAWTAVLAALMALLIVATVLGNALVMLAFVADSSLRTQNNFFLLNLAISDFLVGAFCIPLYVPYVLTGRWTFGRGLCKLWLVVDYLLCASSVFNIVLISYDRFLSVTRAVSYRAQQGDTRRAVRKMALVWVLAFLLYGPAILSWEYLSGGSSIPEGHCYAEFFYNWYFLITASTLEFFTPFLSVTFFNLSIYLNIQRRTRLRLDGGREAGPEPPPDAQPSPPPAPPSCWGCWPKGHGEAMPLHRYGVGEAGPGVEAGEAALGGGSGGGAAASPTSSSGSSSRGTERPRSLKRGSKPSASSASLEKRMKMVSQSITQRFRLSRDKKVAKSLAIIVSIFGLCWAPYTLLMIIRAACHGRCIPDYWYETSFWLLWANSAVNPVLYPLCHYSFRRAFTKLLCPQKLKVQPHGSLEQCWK
Experimental: Twenty-micrometer-thick sagittal rat and monkey brain sections were incubated in an autoradiography buffer containing 5 nM [^11C]TASP0410457 as described in Additional file 1: Supplemental methods. The binding was also performed in the presence of 10 μM of unlabeled TASP0410457, thioperamide, or ciproxifan for the rat sections and 10 μM of TASP0410457 or ciproxifan for the monkey sections to assess the specific radioligand binding.
(25:75) at a flow rate of 1 mL/min. A representative chromatogram of [11C]TASP0390136 is shown in […]
Twenty-micrometer-thick sagittal rat brain sections were pre-incubated with autoradiography buffer (50 mM Tris containing 120 mM NaCl, 2 mM KCl, 1 mM MgCl2, and 1 mM CaCl2, pH7.4) for 30 min, then incubated in the autoradiography buffer containing 5 nM [11C]TASP0410457 at 25°C for 1 h. The sections were washed two times with ice-cold autoradiography buffer for 5 min, rinsed with ice-cold water for 10 s, and then quickly dried. The radioactivity retained on the sections was determined using a BAS imaging plate and the BAS5000 system (GE Healthcare, Piscataway, NJ). For a blocking study, brain slices were reacted with [11C]TASP0410457 in the presence of […] of TASP0410457, thioperamide, or ciproxifan.
Similarly, autoradiography using […] sagittal rhesus monkey brain sections was conducted. […]

[4] = Concentration 1 (unit uncertain)
[5] = Concentration 10 (unit uncertain)

Row | SMILES | % Inhibition [1, 4] [%] | % Inhibition [2, 4] [%] | logD [3] | IC50 (Sigma 1 receptor) [nM] | autoradiographic binding in rat brain sections (H3Rs) | % Inhibition [1, 5] [%] | % Inhibition [2, 5] [%]
1 | COc1ccc(N2C(=O)CCc3cc(OC4CCN(C5CCC5)CC4)ccc32)cc1 [TASP0434988, 6-[(1-cyclobutylpiperidin-4-yl)oxy]-1-(4-methoxyphenyl)-3,4-dihydroquinolin-2(1H)-one] | -8 | 9 | 2.22 | 257 | – | – | –
2 | [11CH3]Oc1ccc(N2C(=O)CCc3cc(OC4CCN(C5CCC5)CC4)ccc32)cn1 [[^11C]TASP0410457] | – | – | – | – | abundant specific binding in the striatum and neocortex | – | –
3 | COc1ccc(N2C(=O)CCc3cc(OCCCN4CCC[C@H]4C)ccc32)cc1 [TASP0390136, 1-(4-methoxyphenyl)-6-{3-[(2R)-2-methylpyrrolidin-1-yl]propoxy}-3,4-dihydroquinolin-2(1H)-one] | – | – | 1.36 | 167 | – | 12 | -2
4 | COc1ccc(N2C(=O)CCc3cc(OC4CCN(C5CCC5)CC4)ccc32)cn1 [TASP0410457, 6-[(1-Cyclobutylpiperidin-4-yl)oxy]-1-(6-methoxypyridin-3-yl)-3,4-dihydroquinolin-2(1H)-one] | – | – | 1.79 | 379 | – | -5 | -2
